Measured values from patent publication US6410735B1, “1-(4-arylpiperazin-1-y1)-ω-[N-(α,ω-dicarboximido)]-alkanes useful as uro-selective α1-adrenoceptor blockers” (Ranbaxy Laboratories Limited, priority 1997, dated 2002).

Legend:
H1 receptor = molecular target: T1, H1 receptor (Cavia porcellus, UniProt P31389); experiment: Receptor selectivity, guinea pig trachea; format: cell-based; settings: read-out: pKB H1-Histaminergic (converted)
T1 construct: guinea pig trachea was used to study H1 receptor antagonistic activity; from tissue; host or cells: guinea pig trachea
Experimental: (§1) Selectivity of action of the present compounds was tested against a range of different receptors, e.g., β1- and α2-adrenergic, muscarinic cholinergic, serotoninergic (5-HT2A), histaminergic (H1), angiotensin II, endothelin (ETA and B,), as well as calcium and potassium channels. Rat aorta was used to study the effect of the compounds on 5-HT2A, ETA, calcium and potassium channels. Angiotensin II receptor antagonistic activity was studied in rabbit aorta. Muscarinic cholinergic receptor and ETB receptor antagonistic activity was studied in rat trachea, while guinea pig trachea was used to study H1 receptor antagonistic activity. Electrically stimulated rat vas deferens was used to investigate the effect of α2-adrenoceptors, while β1-adrenoceptor antagonistic activity was studied using electrically stimulated rat ventricular strips. Results of this selectivity study is shown in (Table 2).

[1] = molecular target: T2, α1A-adrenoceptor (prostate) (Rattus norvegicus, UniProt P43140); experiment: In vitro functional assay, phenylephrine-induced contraction of isolated prostate; format: cell-based; settings: rat prostate, phenylephrine; read-out: In Vitro Functional Assay (pKB) α1A (converted)
T2 construct: Aorta, prostate and spleen tissues were isolated from urethane anaesthetized (1.5 gm/kg) male wistar rats; from tissue; host or cells: isolated prostate of male Wistar rats
T2 sequence (P43140 1-466): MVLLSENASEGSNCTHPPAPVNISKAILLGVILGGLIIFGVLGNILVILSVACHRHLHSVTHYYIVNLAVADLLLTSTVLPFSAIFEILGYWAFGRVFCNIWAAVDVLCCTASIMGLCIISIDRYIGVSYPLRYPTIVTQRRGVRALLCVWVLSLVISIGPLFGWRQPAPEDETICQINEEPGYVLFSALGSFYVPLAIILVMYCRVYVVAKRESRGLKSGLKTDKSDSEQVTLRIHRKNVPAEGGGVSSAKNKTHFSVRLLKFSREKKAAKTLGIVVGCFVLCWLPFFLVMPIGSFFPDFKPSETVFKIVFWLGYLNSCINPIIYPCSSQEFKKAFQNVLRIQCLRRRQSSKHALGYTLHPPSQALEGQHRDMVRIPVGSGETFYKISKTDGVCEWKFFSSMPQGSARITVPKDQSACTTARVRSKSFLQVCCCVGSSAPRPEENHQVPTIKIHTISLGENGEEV
Description: In order to study selectivity of action of the present compounds towards different α-adrenoceptor subtypes, the ability of these compounds to antagonize α1-adrenoceptor agonist induced contractile response of aorta (α1D), prostate (α1A) and spleen (α1B) was studied. Aorta, prostate and spleen tissues were isolated from urethane anaesthetized (1.5 gm/kg) male wistar rats. Isolated tissues were mounted in organ bath containing Krebs Henseleit buffer of the following composition (mM): NaCl 118; KCl 4.7; CaCl2 2.5; MgSO4·H2O 1.2; NaHCO3 25; KH2PO4 1.2; glucose 11.5. Buffer was maintained at 37° C. and aerated with a mixture of 95% O2 and 5% CO2. A resting tension of 2 g (aorta) or 1 g (spleen and prostate) was applied to tissues. Contractile response was monitored using a force displacement transducer and recorded on chart recorders. Tissues were allowed to equilibrate for 2 hours. At the end of equilibration period, concentration response curves to norepinephrine (aorta) and phenylephrine (spleen and prostate) were obtained in the absence and presence of the tested compound (at concentrations of 0.1, 1 and 10 μM). Antagonist affinity was calculated and expressed as PKB values in Table 1.

α1B-adrenoceptor = molecular target: T3, α1B-adrenoceptor (Rattus norvegicus, UniProt P15823); experiment: Receptor binding assay, [3H]prazosin, rat liver membranes; settings: rat liver membranes, 0.5 nM [3H]prazosin; read-out: RBA (Ki nM) α1B
T3 construct: from tissue; host or cells: rat liver membranes
T3 sequence (P15823 1-515): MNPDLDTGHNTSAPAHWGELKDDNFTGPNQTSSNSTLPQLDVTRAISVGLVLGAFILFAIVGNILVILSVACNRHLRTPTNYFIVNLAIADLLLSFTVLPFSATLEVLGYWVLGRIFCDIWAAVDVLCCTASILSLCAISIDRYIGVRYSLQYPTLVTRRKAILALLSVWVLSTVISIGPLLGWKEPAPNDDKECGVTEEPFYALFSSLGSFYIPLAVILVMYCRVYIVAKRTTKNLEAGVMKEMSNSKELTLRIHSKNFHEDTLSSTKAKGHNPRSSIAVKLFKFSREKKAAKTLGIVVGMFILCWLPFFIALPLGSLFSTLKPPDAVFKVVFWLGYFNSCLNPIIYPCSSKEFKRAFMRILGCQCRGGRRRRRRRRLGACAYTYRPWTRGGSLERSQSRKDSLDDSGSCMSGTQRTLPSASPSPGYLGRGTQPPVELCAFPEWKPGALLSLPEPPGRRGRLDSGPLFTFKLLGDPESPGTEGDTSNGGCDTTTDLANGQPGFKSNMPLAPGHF
Experimental: Receptor binding assays, (RBA's) were performed for native α1-adrenoceptors. Rat submaxillary and rat liver membrane preparations were used to assess the affinity for α1A and α1B subtypes, respectively. Aliquots of membrane protein ([…]) were incubated in a final volume of […] assay buffer (50 mM Tris, 0.5 mM EDTA at pH 7.4) with 0.5 nM [^3H] prazosin for 60 mins at 28 ° C. Reaction was stopped by rapid filtration on Millipore filters. Filters were dried and bound radioactivity counted. Non-specific binding was determined in the presence of 0.3 mM prazosin.

[2] = tested on: anaesthetized dogs (intraurethral pressure); experiment: In vivo selectivity study, phenylephrine response on intraurethral (prostatic) pressure in anaesthetized dogs; design: species or system dog; settings: Canis lupus familiaris, iv 0.01-0.3 mg/kg, against phenylephrine, read-out: pseudo pKB Intraurethral Pressure (converted)
Experimental: Male mongrel dogs (12-20 Kg) were anaesthetized with pentobarbitone sodium (35 mg/kg, iv). Trachea was intubated for artificial respiration. Femoral artery and femoral vein were cannulated for recording blood pressure and for administration of drug solutions, respectively. Blood pressure was recorded on a polygraph through a pressure transducer. A paramedian incision was made lateral to the penis and the bladder was exposed. Urine was drained through a cannula put directly into the bladder and it was guided into the urethra gently and was placed at the prostatic urethra. Balloon was inflated with 2 cc air and its placement was confirmed by digital pressure. Intraurethral pressure was recorded on the polygraph through a pressure transducer. Graded dose response relationship of phenylephrine (1-16 μg/kg, iv) was obtained on prostatic pressure and blood pressure, prior to administration of the compounds of the present invention. Compounds 2, 9, and 13 (at dosages of 0.01, 0.03, 0.1, and 0.3 mg/kg) were administered intravenously 10 min before obtaining phenylephrine dose response curves. Results were analyzed and pseudo PKB values were calculated as described in Kenny et al (1996).

5-HT2A = molecular target: T4, 5-HT2A (Rattus norvegicus, UniProt P14842); experiment: Receptor selectivity, rat aorta; format: cell-based; settings: read-out: pKB 5-HT2A (converted)
T4 construct: from tissue; host or cells: rat aorta
Experimental: as §1

T1 sequence (P31389 whole entry): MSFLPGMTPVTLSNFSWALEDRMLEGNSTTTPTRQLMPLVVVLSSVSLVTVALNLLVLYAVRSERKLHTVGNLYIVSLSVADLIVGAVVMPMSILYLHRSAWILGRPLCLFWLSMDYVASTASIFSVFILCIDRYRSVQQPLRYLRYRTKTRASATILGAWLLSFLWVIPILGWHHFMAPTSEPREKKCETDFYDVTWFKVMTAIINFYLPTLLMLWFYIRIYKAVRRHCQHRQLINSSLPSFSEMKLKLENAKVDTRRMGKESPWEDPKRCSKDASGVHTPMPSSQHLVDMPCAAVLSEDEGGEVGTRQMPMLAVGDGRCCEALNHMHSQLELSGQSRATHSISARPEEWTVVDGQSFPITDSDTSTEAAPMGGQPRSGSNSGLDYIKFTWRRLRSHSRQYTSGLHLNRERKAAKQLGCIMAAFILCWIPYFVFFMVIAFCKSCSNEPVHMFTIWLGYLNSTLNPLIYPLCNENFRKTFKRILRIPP
T4 sequence (P14842 whole entry): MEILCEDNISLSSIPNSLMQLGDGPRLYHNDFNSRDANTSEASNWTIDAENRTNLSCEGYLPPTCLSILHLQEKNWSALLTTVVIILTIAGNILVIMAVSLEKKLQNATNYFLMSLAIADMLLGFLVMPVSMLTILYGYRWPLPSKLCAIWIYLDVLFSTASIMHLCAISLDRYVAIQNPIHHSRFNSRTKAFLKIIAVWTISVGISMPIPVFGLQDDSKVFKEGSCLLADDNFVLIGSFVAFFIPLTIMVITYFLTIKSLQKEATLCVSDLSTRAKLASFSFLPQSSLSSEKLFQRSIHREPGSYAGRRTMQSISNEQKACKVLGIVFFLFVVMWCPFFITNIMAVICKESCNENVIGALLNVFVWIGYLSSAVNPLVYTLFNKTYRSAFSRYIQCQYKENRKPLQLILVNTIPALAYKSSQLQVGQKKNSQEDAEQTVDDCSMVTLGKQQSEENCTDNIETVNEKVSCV

## COc1ccccc1N1CCN(CCCN2C(=O)CCC2=O)CC1 [Compound 2, 1-[4-(2-Methoxyphenyl)piperazin-1-yl]3-(2,5-dioxopyrrolidin-1-yl)propane]
H1 receptor
  Kb: 5.01 µM
[1]
  Kb: 0.002 µM
α1B-adrenoceptor
  Ki: 244 nM
[2]
  Kb: 0.0251 µM
5-HT2A
  Kb: 0.0251 µM

## COc1ccccc1N1CCN(CCCCN2C(=O)CCC2=O)CC1 [Compound 9, 1-[4-(2-Methoxyphenyl)piperazin-1-yl]-4-(2,5-dioxopyrrolidin-1-yl)butane]
H1 receptor
  Kb: 3.98 µM
[1]
  Kb: 0.001 µM
α1B-adrenoceptor
  Ki: 35 nM
[2]
  Kb: 0.0126 µM
5-HT2A
  Kb: 0.0126 µM

## COc1ccccc1N1CCN(CCCN2C(=O)CCCC2=O)CC1 [Compound 13, 1-[4-(2-Methoxyphenyl)piperazin-1-yl]-3-(2,6-dioxopiperidin-1-yl)propane]
H1 receptor
  Kb: 2 µM
[1]
  Kb: 0.00251 µM
α1B-adrenoceptor
  Ki: 168 nM
[2]
  Kb: 0.00794 µM
5-HT2A
  Kb: 0.01 µM
